# Test results taken from US9856250B2, “Substituted tropane derivatives” (TOA EIYO LTD., priority 2014, dated 2018).
# pIC50: −log10 of the molar value. Where two headings read alike, the source gives them in different places.
# What was measured:
# [1] = system: Salmonella typhimurium TA98 and TA100; test: Reverse mutation test (Ames test), pre-incubation method; format: cell-based; settings: strains TA98 and TA100; for Ames test S9 (−): absence of metabolic activation system (S9mix (−)); for Ames test S9 (+): presence of metabolic activation system (rat liver S9mix (+))
# Protocol: The presence or absence of genotoxicity in the compounds of the present invention was evaluated by a reverse mutation test (Ames test) using bacteria. The test was performed by a pre-incubation method using two bacterial strains of Salmonella typhimurium TA98 and TA100, in the absence of a metabolic activation system (S9mix (−)) and in the presence of a metabolic activation system (S9mix (+)). The compounds were dissolved in dimethyl sulfoxide (DMSO), and thus test liquids were prepared. Regarding the negative control, the solvent DMSO was used. Regarding the positive control, 2-(2-furyl)-3-(5-nitro-2-furyl)acrylamide (AF-2) was used for S9mix (−), and 2-aminoanthracene (2-AA) was used for S9mix (+).
# 0.1 mL of a test liquid was introduced into a sterilized test tube, and then 0.5 mL of a 0.1 mol/L sodium phosphate buffer solution (pH 7.4) was added to the test tube in the case of S9mix (−), or 0.5 mL of rat liver S9mix was added to the test tube in the case of S9mix (+). Furthermore, 0.1 mL of a precultured test strain suspension was added to the test tube, and then the test strain was subjected to shaking culture for 20 minutes at 37° C. (preincubation). […] Subsequently, the content of the test tube was superposed on a minimum glucose agar medium plate and was spread evenly. The plate was cultured for 48 hours at 37° C. in a thermostat. After completion of culture, the number of reverse mutation colonies grown on the plate was measured using a colony counter. Regarding the determination, a case in which the number of reverse mutation colonies increased to twice or more of the number of colonies of the negative control, and concentration-dependency was recognized, was regarded as positive. […]
# [2] = target: human T-type calcium channels (human Cav3.2) (Homo sapiens (Human), UniProt O95180); test: Antagonistic activity against T-type calcium channels (Cav3.2), Fura2 intracellular calcium assay in HEK293 cells; format: cell-based
# Protocol: For representative compounds of the present invention, the antagonistic activity against T-type calcium channels (Cav3.2) was examined by the Test Examples described below. For the respective tests, human embryo kidney cells (HEK293 cells) in which human T-type calcium channels (human Cav3.2) were stably expressed were used.
# The HEK293 cells having human Cav3.2 stably expressed therein were cultured at 37° C. in Alpha-MEM, to which 10% (v/v) fetal bovine serum (FBS), penicillin (100 U/mL), streptomycin (100 μg/mL), and G418 ([…]) had been added. The cells were suspended in the culture liquid and were inoculated onto a 96-well plate. Subsequently, the cells were cultured for 48 hours. The culture liquid was removed, and the liquid was changed to S-MEM, to which 5% (v/v) FBS, calcium chloride (0.5 mmol/L), L-glutamine (2 mmol/L), L-alanine (8.9 ng/mL), L-asparagine (13.2 ng/mL), L-aspartic acid (1.33 ng/mL), L-glutamic acid (14.7 ng/mL), glycine (7.5 ng/mL), L-proline (11.5 ng/mL, L-serine (10.5 ng/mL), penicillin (100 U/mL), and streptomycin (100 μg/mL) had been added. The cells were cultured for another 24 hours. The culture liquid was removed again, and the cells were washed with an assay buffer (140 mmol/L sodium chloride, 5 mmol/L potassium chloride, 0.5 mmol/L magnesium chloride, 0.5 mmol/L calcium chloride, 10 mmol/L glucose, 0.4 mmol/L magnesium sulfate, 10 mmol/L HEPES, and […] sulfinpyrazone, pH 7.4) that had been kept warm at 37° C. Subsequently, an assay buffer prepared by dissolving Fura2-AM, which is a fluorescent Ca^2+ indicator, to a concentration of 5 μM, was added to the cells, and the system was incubated for 30 minutes at 37° C. The assay buffer having Fura2 dissolved therein was removed, and the cells were washed with the assay buffer. Subsequently, an assay buffer prepared by adding a test compound was added to the cells, and the system was incubated for 15 minutes. The plate was mounted on a fluorescence analyzer (FLEX STATION II, Molecular Devices, LLC), and the baseline was measured for 20 seconds. Subsequently, any change in the intracellular calcium concentration that was induced when an assay buffer prepared by adding 100 mmol/L calcium chloride was added to the cells, was measured (excited at 340 nm or 380 nm, and detected at 510 nm). The fluorescence intensity ratios obtainable at the respective wavelengths were calculated.
# Meanwhile, the test compound solution was prepared by dissolving each test compound in DMSO to a concentration of 10 mmol/L, and then adjusting the concentration with the assay buffer so as to obtain the set concentration. For the control solution, DMSO was used instead of a test compound.
# The inhibitory activity level (%) of a test compound was calculated by subtracting the average value of the fluorescence intensity ratio for a period of 0 to 20 seconds after initiation of measurement, from the average value of the fluorescence intensity ratio for a period of 45 to 50 seconds after initiation of measurement, taking the value obtained using the control solution as the maximum activity of Cav3.2, and comparing this value with the activity in the presence of the test compound.
# Calculation of IC50 Value:
# The inhibitory activity of each test compound was measured at concentrations of […], and the IC50 value was calculated using the curve fitting formula (Model 08: sigmoidal inhibition curve) of ASSAY EXPLORER (Symyx Technologies, Inc.).
# Average of RFU value obtained for 25 to 30 seconds after the addition of a […] assay buffer after treatment with the control solution (for 45 to 50 seconds after the initiation of measurement). The RFU in the formula represents the Relative Fluorescence Unit.
# [3] = HEK293 cells stably expressing human Cav3.2, Fura2 fluorescence ratio after calcium chloride addition, read-out: IC50
# Sequence of human T-type calcium channels (human Cav3.2) (O95180 whole entry): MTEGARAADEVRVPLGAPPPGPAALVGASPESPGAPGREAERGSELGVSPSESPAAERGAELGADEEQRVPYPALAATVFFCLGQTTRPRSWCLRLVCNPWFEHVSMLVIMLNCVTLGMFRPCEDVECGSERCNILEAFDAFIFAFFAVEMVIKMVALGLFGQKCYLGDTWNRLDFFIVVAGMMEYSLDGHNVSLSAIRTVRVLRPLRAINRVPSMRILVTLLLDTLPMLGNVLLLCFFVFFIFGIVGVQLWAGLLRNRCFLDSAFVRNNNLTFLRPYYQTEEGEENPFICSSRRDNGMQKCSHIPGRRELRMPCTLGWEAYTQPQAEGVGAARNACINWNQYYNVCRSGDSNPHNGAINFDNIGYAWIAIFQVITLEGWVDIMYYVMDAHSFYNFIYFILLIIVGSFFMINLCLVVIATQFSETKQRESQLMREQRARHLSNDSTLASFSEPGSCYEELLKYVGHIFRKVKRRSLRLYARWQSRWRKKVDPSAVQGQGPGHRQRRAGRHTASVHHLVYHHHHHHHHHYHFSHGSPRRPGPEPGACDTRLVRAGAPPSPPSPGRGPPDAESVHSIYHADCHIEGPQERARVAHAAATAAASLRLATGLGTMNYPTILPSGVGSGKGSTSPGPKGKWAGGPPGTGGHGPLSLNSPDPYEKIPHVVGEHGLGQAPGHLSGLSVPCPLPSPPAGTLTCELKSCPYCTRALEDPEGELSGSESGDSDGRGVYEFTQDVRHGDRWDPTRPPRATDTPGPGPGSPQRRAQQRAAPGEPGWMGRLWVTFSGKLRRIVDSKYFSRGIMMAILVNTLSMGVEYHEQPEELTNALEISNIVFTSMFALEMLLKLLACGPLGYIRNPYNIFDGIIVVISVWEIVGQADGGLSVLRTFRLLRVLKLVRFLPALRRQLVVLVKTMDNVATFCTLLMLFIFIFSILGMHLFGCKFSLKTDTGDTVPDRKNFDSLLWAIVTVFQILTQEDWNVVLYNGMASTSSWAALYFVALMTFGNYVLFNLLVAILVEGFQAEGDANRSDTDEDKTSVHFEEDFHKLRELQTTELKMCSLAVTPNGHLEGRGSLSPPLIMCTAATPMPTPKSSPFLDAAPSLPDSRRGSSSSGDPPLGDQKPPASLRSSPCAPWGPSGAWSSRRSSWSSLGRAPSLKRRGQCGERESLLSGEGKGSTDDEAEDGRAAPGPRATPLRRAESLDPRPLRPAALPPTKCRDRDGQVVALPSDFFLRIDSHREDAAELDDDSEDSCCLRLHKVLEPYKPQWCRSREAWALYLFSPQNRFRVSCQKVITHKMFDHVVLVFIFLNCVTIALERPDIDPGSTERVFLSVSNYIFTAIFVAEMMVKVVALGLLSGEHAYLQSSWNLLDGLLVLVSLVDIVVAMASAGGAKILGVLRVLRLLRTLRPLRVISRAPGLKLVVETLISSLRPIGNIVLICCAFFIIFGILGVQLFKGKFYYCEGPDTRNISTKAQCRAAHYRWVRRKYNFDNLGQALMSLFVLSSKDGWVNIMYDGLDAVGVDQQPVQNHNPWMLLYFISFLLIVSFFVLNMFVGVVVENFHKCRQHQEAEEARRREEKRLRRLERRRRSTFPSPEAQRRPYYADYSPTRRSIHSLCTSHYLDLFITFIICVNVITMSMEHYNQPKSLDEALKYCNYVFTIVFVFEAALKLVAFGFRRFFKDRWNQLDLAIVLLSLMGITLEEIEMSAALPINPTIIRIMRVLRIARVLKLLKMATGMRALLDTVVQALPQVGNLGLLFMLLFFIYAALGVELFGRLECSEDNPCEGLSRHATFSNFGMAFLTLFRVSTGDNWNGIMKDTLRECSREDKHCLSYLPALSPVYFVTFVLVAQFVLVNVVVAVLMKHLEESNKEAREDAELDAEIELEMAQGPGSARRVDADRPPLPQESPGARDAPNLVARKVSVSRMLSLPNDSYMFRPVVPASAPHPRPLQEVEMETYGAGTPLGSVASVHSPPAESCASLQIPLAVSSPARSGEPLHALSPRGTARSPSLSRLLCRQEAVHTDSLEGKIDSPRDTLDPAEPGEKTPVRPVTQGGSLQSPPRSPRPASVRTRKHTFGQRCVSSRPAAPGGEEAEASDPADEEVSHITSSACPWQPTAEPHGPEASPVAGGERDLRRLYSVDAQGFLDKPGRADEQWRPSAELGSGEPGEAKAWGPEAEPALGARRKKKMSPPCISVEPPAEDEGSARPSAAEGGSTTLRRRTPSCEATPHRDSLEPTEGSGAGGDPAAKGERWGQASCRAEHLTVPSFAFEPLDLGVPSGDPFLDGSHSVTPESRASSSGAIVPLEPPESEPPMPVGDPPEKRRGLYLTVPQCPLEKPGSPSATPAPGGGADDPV
SMILES,Ames test S9 (−) [1],Ames test S9 (+) [1],pIC50 [2],"pIC50 [2, 3]"
Cc1cc(C(=O)NC[C@@H]2C[C@H]3CC[C@@H](C2)N3CC(=O)NC(C)(C)C)n(C)n1 [Example 174],Negative,Negative,,
"COc1cccc2[nH]c(CC3CCN(CC(=O)NC(C)(C)C)CC3)nc12 [Control Compound 2, N-tert-Butyl-2-[4-(4-methoxy-1H-benzimidazol-2-yl)methylpiperidin-1-yl]acetamide, reference compound]",Negative,Positive,,
"CC(C)(C)NC(=O)CN1[C@@H]2CC[C@H]1C[C@@H](CC(=O)NC13CC4CC(CC(C4)O1)C3)C2.Cl [Example 152, 2-[(endo)-8-(tert-Butylcarbamoyl)methyl-8-azabicyclo[3.2.1]octan-3-yl]-N-(2-oxaadamantan-1-yl)acetamide hydrochloride]",Negative,Negative,,
CC(C)(C)NC(=O)CN1[C@@H]2CC[C@H]1C[C@H](CNC(=O)c1cc(F)cc(Cl)c1)C2 [Example 54],Negative,Negative,7.70,
COc1ccc(OC)c2[nH]c(C[C@@H]3C[C@H]4CC[C@@H](C3)N4CC(=O)NC(C)(C)C)nc12 [Example 172],Negative,Negative,,
COc1ccc2[nH]c(C[C@@H]3C[C@H]4CC[C@@H](C3)N4CC(=O)NC(C)(C)C)nc2c1OC [Example 155],Negative,Negative,,
O=C(CN1[C@@H]2CC[C@H]1C[C@H](CNC(=O)c1cc(F)cc(Cl)c1)C2)NC1(C(F)(F)F)CC1 [Example 114],,,,7.15
"CC(C)(C)NC(=O)CN1[C@@H]2CC[C@H]1C[C@H](CNC(=O)c1coc3ccccc13)C2 [Example 11, N-[(exo)-8-(tert-Butylcarbamoyl)methyl-8-azabicyclo[3.2.1]octan-3-yl]methylbenzofuran-3-carboxamide]",,,,8.52
CC(C)(C)NC(=O)CN1[C@@H]2CC[C@H]1C[C@@H](CC(=O)NC13CC4CC(CC1C4)C3)C2 [Example 131],,,,7.31
CC(C)(C)NC(=O)CN1[C@@H]2CC[C@H]1C[C@H](CNC(=O)c1cc(F)cc(C#N)c1)C2 [Example 79],,,7.35,
"Cc1cccc2[nH]c(CC3CCN(CC(=O)NC(C)(C)C)CC3)nc12 [Control Compound 1, N-tert-Butyl-2-[4-(4-methyl-1H-benzimidazol-2-yl)methylpiperidin-1-yl]acetamide, reference compound]",Negative,Positive,,
Cc1cc(F)cc(C(=O)NC[C@@H]2C[C@H]3CC[C@@H](C2)N3CC(=O)NC(C)(C)C)c1 [Example 55],,,,7.44
COc1cc(C)cc(C(=O)NC[C@@H]2C[C@H]3CC[C@@H](C2)N3CC(=O)NC(C)(C)C)c1 [Example 72],,,,7.26
"COc1cccc2[nH]c(C[C@H]3C[C@H]4CC[C@@H](C3)N4CC(=O)NC(C)(C)C)nc12 [Example 145, N-tert-Butyl-2-[(endo)-3-(4-methoxy-1H-benzimidazol-2-yl)methyl-8-azabicyclo[3.2.1]octan-8-yl]acetamide]",Negative,Negative,,7.01
CC(C)(C)NC(=O)CN1[C@@H]2CC[C@H]1C[C@H](CNC(=O)C(C)(C)Oc1ccccc1)C2 [Example 28],,,,7.19
COc1cc(C)cc(C(=O)NC[C@@H]2C[C@H]3CC[C@@H](C2)N3CC(=O)NC2(C(F)(F)F)CC2)c1 [Example 96],,,,7.24
"Cc1cccc2[nH]c(C[C@@H]3C[C@H]4CC[C@@H](C3)N4CC(=O)NC(C)(C)C)nc12 [Example 120, N-tert-Butyl-2-[(exo)-3-(4-methyl-1H-benzimidazol-2-yl)methyl-8-azabicyclo[3.2.1]octan-8-yl]acetamide]",,,,7.23
CC(C)(C)NC(=O)CN1[C@@H]2CC[C@H]1C[C@H](CNC(=O)c1cccc(F)c1)C2 [Example 113],,,7.41,
"CC(C)(C)NC(=O)CN1[C@@H]2CC[C@H]1C[C@H](Cc1nc3c4c(ccc3[nH]1)OCCO4)C2 [Example 123, N-tert-Butyl-2-[(exo)-3-(5,6-dihydro-1H-[1,4]dioxino[2,3-e]benzimidazol-2-yl)methyl-8-azabicyclo[3.2.1]octan-8-yl]acetamide]",Negative,Negative,,
COc1cc(F)cc(C(=O)NC[C@@H]2C[C@H]3CC[C@@H](C2)N3CC(=O)NC(C)(C)C)c1 [Example 56],,,7.47,
"CC(C)(C)NC(=O)CN1CCC(Cc2nc3ccc4c(c3[nH]2)OCCO4)CC1.Cl.Cl [Control Compound 3, N-tert-Butyl-2-[4-(5,6-dihydro-1H-[1,4]dioxino[2,3-e]benzimidazol-2-yl)methylpiperidin-1-yl]acetamide dihydrochloride, reference compound]",Negative,Positive,,
COc1cc(F)c2nc(C[C@@H]3C[C@H]4CC[C@@H](C3)N4CC(=O)NC(C)(C)C)[nH]c2c1 [Example 154],,,7.11,
CC(C)(C)NC(=O)CN1[C@@H]2CC[C@H]1C[C@H](CNC(=O)c1ccc(F)cc1)C2 [Example 78],,,,7.36
